Literature values as cited in PMC4457528, “Identification of Novel Small Molecule Inhibitors of Oncogenic RET Kinase” (PLoS ONE, 2015).

How the values were obtained:
[1] = system: RET and its gate-keeper mutants; details: cited from earlier work
[2] = system: RET Y806C; design: method as in PMID 15184865, PMID 19029224; details: cited from earlier work

Row | Compound | inhibition of RET and its gate-keeper mutants [1] | fold increase of in vitro IC50 dose for RET by Y806C [2] [fold]
1 | Cc1ccc(C(=O)Nc2ccc(CN3CCN(C)CC3)c(C(F)(F)F)c2)cc1C#Cc1cnc2cccnn12 [ponatinib] | potently inhibits | 
2 | COc1cc2c(Nc3ccc(Br)cc3F)ncnc2cc1OCC1CCN(C)CC1 [vandetanib] |  | 10
